Holding throughout (test): NCI tumour cell line growth inhibition, 48 h
Test [1] concerns HT29 colon.
Test [2] deals with IGROV1 ovarian.
The subject of test [3] is LOX IMVI melanoma.
The test system of test [4] is MDA-MB-231 breast.
In test [5] the test system is MOLT-4 leukemia.
The test system of test [6] is SF-268 CNS.
Test [7] concerns SK-MEL-2 melanoma.
For test [8], the system named is SK-MEL-5 melanoma.
For test [9], the system named is U251 CNS.
The test system of test [10] is UO-31 renal.

Molecules are shown by their SMILES.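 Dose response: 5 concentrations. Exposure: 48 h. Format: 96-well plates. Endpoint: linear interpolation; highest concentration if not reached. Here, GI50 denotes the concentration required for 50% inhibition of growth. TGI marks complete inhibition of growth.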

For `CCCC/C(=N\N=C(N)N)c1ccc(F)cc1`, the GI50 in [1] was 2.23 µM; in test [2], 5.06 µM; in test [3] it was 1.33 µM; in [4], 5.42 µM; in test [5], 3.35 µM; in [6], 5.58 µM. The GI50 was 3.09 µM in [7], 1.48 µM in test [8], 2.36 µM in [9] and 5.28 µM in test [10]. The TGI in test [2] amounted to 20.9 µM; in test [3], 13.5 µM; in test [4] it was 18.9 µM; in test [5] it was 24.4 µM; in [6] it was 20.8 µM; in [7] it was 9.4 µM. Besides, the TGI in [8] was 4.27 µM; in test [9], 10.2 µM; in test [10] it was 20.1 µM.
Take `CCN(CC)CCOc1ccc(/C=C2\C[C@H]3[C@@H]4CC=C5C[C@@H](OC(C)=O)CC[C@]5(C)[C@H]4CC[C@]3(C)[C@H]2OC(C)=O)cc1OC`: the GI50 in test [1] is 14.8 µM; in [2] it was 14.9 µM; in test [3], 18.1 µM; in [4] it was 14.1 µM; in test [5], 1.4 µM; in [6], 8.34 µM. Further, the GI50 was 19.2 µM in [7], 5.39 µM in [8], 10.3 µM in test [9] and 11.6 µM in test [10]. Also, the TGI in test [1] was more than 50 µM; in test [2] it was more than 50 µM; in test [3], more than 50 µM; in test [4], 31.8 µM; in test [5], 20.6 µM; in [6] it was 19.8 µM. In addition, the TGI was more than 50 µM in test [7], 17 µM in test [8], 26.2 µM in test [9] and 27 µM in test [10].
For the molecule `CC[C@@]1(OC(=O)CN)C(=O)OCc2c1cc1n(c2=O)Cc2cc3cc(N)ccc3nc2-1`, the GI50 in test [1] is 0.127 µM; in test [2] it was 0.0974 µM; in test [3], less than 0.01 µM; in test [4] it was 0.769 µM; in test [5] it was less than 0.01 µM; in [6] it was less than 0.01 µM. Besides, the GI50 in test [7] was less than 0.0441 µM; in [8] it was 0.0181 µM; in [9] it was less than 0.01 µM; in test [10] it was less than 0.0113 µM. Further, the TGI in [1] is more than 100 µM; in test [2] it was 1.39 µM; in test [3], 0.103 µM; in test [4], more than 100 µM; in [7] it was 0.421 µM; in [8], 0.141 µM.
Consider `O=C1C=C(Nc2cccc(Br)c2)c2ccccc2C1=O`, for which the GI50 in test [1] was 69.1 µM; in test [2] it was 10.5 µM; in test [3], 4.35 µM; in test [4], 1.51 µM; in test [5] it was 18.4 µM; in test [6] it was 9.01 µM. The GI50 in test [7] was 0.785 µM; in [8], 1.2 µM; in [9] it was 2.74 µM; in test [10], 1.81 µM. Further, the TGI in test [1] was more than 100 µM; in test [2], 37.5 µM; in test [3] it was 21.5 µM; in test [4], 36.5 µM; in test [5], 42.7 µM; in [6], more than 100 µM. For the same molecule, the TGI in test [7] was 22 µM; in [8], 10.5 µM; in test [9], 22.1 µM; in test [10], 33.6 µM.
In the case of `COc1ccc(C2=CC(c3cc(OC)c(OC)c(OC)c3)n3ncnc3N2)cc1` (stereo not given), the GI50 in test [1] was 0.0381 µM; in test [2], 0.0912 µM; in test [3], 0.0898 µM; in test [4] it was 0.193 µM; in test [5] it was 0.171 µM; in test [6] it was 0.0833 µM. Further, the GI50 in [7] was 16.9 µM; in [8] it was 0.0427 µM; in [9] it was 0.0551 µM; in [10], 10 µM. Further, the TGI in test [1] was 11.2 µM; in test [2], 31.1 µM; in test [3] it was more than 100 µM; in [4], 83.5 µM; in test [5] it was more than 100 µM; in test [6] it was 29.7 µM. Besides, the TGI in test [7] worked out at 71.1 µM; in test [8], 0.374 µM; in test [9], 29.6 µM; in test [10], 66.4 µM.
For the molecule `CC1(C)N=C(N)N=C(N)N1c1ccc(OCC(=O)Nc2cccc(S(=O)(=O)F)c2)c(Cl)c1`, the TGI in [1] was more than 100 µM; in test [2] it was more than 100 µM; in test [3], more than 100 µM; in test [4], more than 100 µM; in test [5] it was more than 100 µM; in test [6], more than 41.3 µM. Besides, the TGI in test [7] was more than 100 µM; in test [8], more than 91.9 µM; in test [9], more than 100 µM; in test [10] it was more than 100 µM.
For `N#CC1c2ccccc2-c2ccccc2N1C(=O)c1ccccc1` (stereo not given), the GI50 in [1] is 1.1 µM; in [2], 2.66 µM; in test [3], 2.81 µM; in [4], 2.61 µM; in [5], 1.73 µM; in test [6] it was 3.03 µM. The GI50 was 2.78 µM in [7], 1.55 µM in [8], 2.68 µM in test [9] and 3.63 µM in [10]. The TGI in [1] is more than 25.3 µM; in test [2], 7.01 µM; in [3] it was more than 94.3 µM; in test [4], 9.06 µM; in test [5] it was more than 100 µM; in test [6] it was 23.4 µM. Also, the TGI was more than 29.6 µM in [7], 4.84 µM in test [8], more than 46.7 µM in test [9] and more than 59.4 µM in test [10].
Regarding `O=C(N[C@@H]1CCCc2ccccc21)[C@H](CCC(=O)N1CCN(C2CCCCC2)CC1)N1C(=O)[C@@H](N2C(=O)OC[C@@H]2c2ccccc2)[C@H]1/C=C/c1ccccc1`, the GI50 in test [1] was 1.99 µM; in test [2], 2.44 µM; in test [3] it was 1.68 µM; in test [4], 1.89 µM; in test [5], 2.27 µM; in [6], 1.3 µM. Also, the GI50 in test [7] is 1.92 µM; in test [8] it was 1.37 µM; in test [9], 2.2 µM; in test [10], 2.01 µM. Further, the TGI is 5.21 µM in test [1]; 41.3 µM in test [2]; 3.41 µM in test [3]; 4.12 µM in [4]; more than 100 µM in test [5]; 3.04 µM in [6]. Also, the TGI was 4.29 µM in [7], 2.71 µM in [8], 5.42 µM in test [9] and 8.68 µM in [10].

The values above are taken from PubChem BioAssay (NCI).
